Several values for one entry are separate records, joined by “and”; a condition that tells them apart may be missing. Equal entries are not always repeated.

This data set in a line: solvent given as SMILES.

For `CCCCC(CC)CN1C(=O)c2cc(Oc3ccc(C(C)(C)C)cc3)c3c4c(Cl)cc5c6c(cc(Cl)c(c7c(Oc8ccc(C(C)(C)C)cc8)cc(c2c37)C1=O)c64)C(=O)N(c1c(C(C)C)cccc1C(C)C)C5=O` (stereo not drawn), the emission maximum (in Cc1ccccc1) was 606 nm.
Take `O=C(c1ccc(N2c3ccccc3Oc3ccccc32)cc1)c1ccc(N2c3ccccc3Oc3ccccc32)cc1`: the emission maximum stood at 509 nm (in Cc1ccccc1) and 538 nm (in c1cc(-n2c3ccccc3c3ccccc32)cc(-n2c3ccccc3c3ccccc32)c1).
Regarding `CC(C)(C)c1ccc2c(c1)c1cc(C(C)(C)C)ccc1n2-c1ccc(N(c2ccc(-c3ccc(-c4ccc(N(c5ccc(-n6c7ccc(C(C)(C)C)cc7c7cc(C(C)(C)C)ccc76)cc5)c5ccc(-n6c7ccc(C(C)(C)C)cc7c7cc(C(C)(C)C)ccc76)cc5)cc4)c4nsnc34)cc2)c2ccc(-n3c4ccc(C(C)(C)C)cc4c4cc(C(C)(C)C)ccc43)cc2)cc1`, the emission maximum (in ClCCl) amounted to 600 nm.
On the same count and under the same terms, under `Cc1cc(C)c(C2=C3C=C(/C=C/C(=O)OC(C)(C)C)C=[N+]3[B-](F)(F)n3c2ccc3N2CCCC2)c(C)c1` stands 551 nm.
For `c1ccc(-c2cc(-c3ccccc3)[o+]c(-c3ccccc3)c2)cc1`, the emission maximum by setting is: (in CC#N) 465 nm; (in ClCCCl) 463 nm.
Take `CC1(C)OB(c2cc3ccc4cc(B5OC(C)(C)C(C)(C)O5)cc5ccc(c2)c3c45)OC1(C)C`: the emission maximum (in Cc1ccccc1) is 400 nm.
With `Cc1cc2c3ccccc3[nH]c2c2[nH]c3ccccc3c12`, the emission maximum (in ClCCl) came to 371 nm.
For the molecule `CC(C)(C)c1ccc2c(c1)c1cc(C(C)(C)C)ccc1n2-c1ccc(C#Cc2ccc(C#Cc3ccc(-n4c5ccc(C(C)(C)C)cc5c5cc(C(C)(C)C)ccc54)cc3)cc2)cc1`, the emission maximum is listed as 470 nm (in CC#N); 385 nm (in CCCCC); 453 nm (in CO); 400 nm (in Cc1ccccc1); 419 nm (in ClC(Cl)Cl); 437 nm (in ClCCl).
As for `O=c1ccc2ccc(C#Cc3ccccc3)cc2o1`, the emission maximum (in CC#N) is 364 nm.
In the case of `CN(C)c1ccc2nc(-c3ccc(C(=O)O)cc3)sc2c1`, the emission maximum reads like this: (in C1CCCCC1) 426 nm; (in CC#N) 558 nm; (in CC(C)O) 493 nm; (in CO) 512 nm; (in CS(C)=O) 568 nm; (in ClC(Cl)Cl) 509 nm. The emission maximum (in c1ccccc1) is 483 nm and 486 nm.
Molecule `CCCCCCn1c(=O)c2c3oc4ccccc4oc3c3c(=O)n(CCCCCC)c(=O)c3c2c1=O` showed an emission maximum (in ClCCl) of 487 nm.
Take `O=c1oc2ccc3ccccc3c2nc1-c1ccc(Cl)cc1`: for the setting “in c1ccccc1”, the emission maximum was determined as 465 nm.
For `CCCCc1cc(CCCC)c2ccc3c(CCCC)cc(CCCC)c4ccc1c2c43`, the emission maximum stood at 388 nm (in CCCCCC), 388 nm (in CO) and 389 nm (in ClCCl).
With `COc1cc(N(c2ccccc2)c2ccc(C=C(C#N)C#N)c(OC)c2)ccc1C=C(C#N)C#N`, the emission maximum runs as follows: (in C1COCCO1) 520 nm; (in CC#N) 571 nm; (in CC(C)=O) 562 nm; (in CCOC(C)=O) 532 nm; (in CN(C)C=O) 576 nm; (in CO) 558 nm. The molecule further returned an emission maximum (in Cc1ccccc1) of 500 nm, an emission maximum (in ClC(Cl)Cl) of 524 nm and an emission maximum (in ClCCl) of 534 nm.
Take `O=c1oc2ccccc2nc1-c1ccc(Cl)cc1`: the emission maximum (in c1ccccc1) worked out at 440 nm.
For `Fc1c(F)c(F)c([B-]2(c3c(F)c(F)c(F)c(F)c3F)Oc3c(ccc4c5c(ccc34)C=[N+](c3ccccc3)[B-](c3c(F)c(F)c(F)c(F)c3F)(c3c(F)c(F)c(F)c(F)c3F)O5)C=[N+]2c2ccccc2)c(F)c1F`, the emission maximum is, setting by setting: (in C1CCOC1) 578 nm; (in CC#N) 577 nm; (in CC(C)=O) 578 nm; (in Cc1ccccc1) 580 nm; (in ClCCl) 580 nm.

Source of the values: the Deep4Chem optical property database.
